Where only a bound is given, the exact number is not on record here.

The assay deals with HEK293T cells carrying the ATF4 luciferase reporter. Description: ATF4-Luc assay (in vitro model of VWMD). The class given is cell-based. As to conditions: Homo sapiens, HEK-293T; HEK293T cells with ATF4 5'-UTR firefly luciferase reporter; 1 μg/mL tunicamycin; 7 hours; One Glo luminescence. On the procedure:
In order to test exemplary compounds of the invention in a cellular context, a stable VWMD cell line was first constructed. The ATF4 reporter was prepared by fusing the human full-length ATF4 5′-UTR (NCBI Accession No. BC022088.2) in front of the firefly luciferase (FLuc) coding sequence lacking the initiator methionine as described in Sidrauski et al (eLife 2013). The construct was used to produce recombinant retroviruses using standard methods and the resulting viral supernatant was used to transduce HEK293T cells, which were then subsequently selected with puromycin to generate a stable cell line.
HEK293T cells carrying the ATF4 luciferase reporter were plated on polylysine coated 384-well plates (Greiner Bio-one) at 30,000 cells per well. Cells were treated the next day with 1 μg/mL tunicamycin and 200 nM of a compound of Formula (I) for 7 hours. Luminescence was measured using One Glo (Promega) as specified by the manufacturer. Cells were maintained in DMEM with L-glutamine supplemented with 10% heat-inactivated FBS (Gibco) and Antibiotic-Antimycotic solution (Gibco).
Table 2 below summarizes the EC50 data obtained using the ATF4-Luc assay for exemplary compounds of the invention.
In general, EC50 refers to the concentration that produces a half-maximal response. `O=C(COc1ccc(Cl)c(F)c1)N[C@H]1CC[C@H](C(=O)NCc2ccc(C(F)(F)F)cn2)CC1` [Compound 119, (1r,4r)-4-[2-(4-chloro-3-fluorophenoxy)acetamido]-N-{[5-(trifluoromethyl)pyridin-2-yl]methyl}cyclohexane-1-carboxamide]: the EC50 is less than 10 nM.
For `O=C(COc1ccc(Cl)c(Cl)c1)N[C@H]1CC[C@H](C(=O)NCc2ccc(OC(F)F)cn2)CC1` [Compound 120, (1r,4r)-4-[2-(3,4-dichlorophenoxy)acetamido]-N-{[5-(difluoromethoxy)pyridin-2-yl]methyl}cyclohexane-1-carboxamide], the EC50 is 10 to 50 nM.
Next, `O=C(COc1ccc(Cl)c(F)c1)N[C@H]1C[C@H](C(=O)NCc2ccc(Cl)cn2)C1` [Compound 121, (1r,3r)-3-[2-(4-chloro-3-fluorophenoxy)acetamido]-N-[(5-chloropyridin-2-yl)methyl]cyclobutane-1-carboxamide]: 250 to 500 nM.
For the compound `O=C(COc1ccc(Cl)c(F)c1)N[C@H]1C[C@H](C(=O)NCc2ccc(C(F)(F)F)cn2)C1` [Compound 122, (1r,3r)-3-[2-(4-chloro-3-fluorophenoxy)acetamido]-N-{[5-(trifluoromethyl)pyridin-2-yl]methyl}cyclobutane-1-carboxamide], the EC50 was 500 to 2000 nM.
`O=C(COc1ccc(Cl)c(F)c1)N[C@H]1C[C@H](C(=O)N2CC(c3ccc(Cl)cc3)C2)C1` [Compound 123, 2-(4-chloro-3-fluorophenoxy)-N-{(1r,3r)-3-[3-(4-chlorophenyl)azetidine-1-carbonyl]cyclobutyl}acetamide]: the EC50 was 250 to 500 nM.
The figure for `O=C(COc1ccc(Cl)c(F)c1)N[C@H]1CC[C@H](C(=O)N2CC3(CN(c4ccc(Cl)c(F)c4)C3)C2)CC1` [Compound 124, 2-(4-chloro-3-fluorophenoxy)-N-{(1r,4r)-4-[6-(4-chloro-3-fluorophenyl)-2,6-diazaspiro[3.3]heptane-2-carbonyl]cyclohexyl}acetamide] is more than 2000 nM; for `O=C(COc1ccc(Cl)c(F)c1)N[C@H]1CC[C@H](C(=O)N2CCN(c3ccc(Cl)cc3)C(=O)C2)CC1` [Compound 125, 2-(4-chloro-3-fluorophenoxy)-N-{(1r,4r)-4-[4-(4-chlorophenyl)-3-oxopiperazine-1-carbonyl]cyclohexyl}acetamide] it is 250 to 500 nM; for `O=C(COc1ccc(Cl)c(F)c1)N[C@H]1CC[C@H](C(=O)N2CCN(c3cccc(Cl)c3)C(=O)C2)CC1` [Compound 126, 2-(4-chloro-3-fluorophenoxy)-N-{(1r,4r)-4-[4-(3-chlorophenyl)-3-oxopiperazine-1-carbonyl]cyclohexyl}acetamide] it is 500 to 2000 nM.
The figure for `O=C(COc1ccc(Cl)c(F)c1)N[C@H]1CC[C@H](C(=O)N2CCN(c3ccc(Cl)cc3)CC2)CC1` [Compound 127, 2-(4-chloro-3-fluorophenoxy)-N-{(1r,4r)-4-[4-(4-chlorophenyl)piperazine-1-carbonyl]cyclohexyl}acetamide] is more than 2000 nM; for `O=C(COc1ccc(Cl)c(F)c1)N[C@H]1CC[C@H](C(=O)N2CCC(c3ccc(Cl)cc3)CC2)CC1` [Compound 128, 2-(4-chloro-3-fluorophenoxy)-N-{(1r,4r)-4-[4-(4-chlorophenyl)piperidine-1-carbonyl]cyclohexyl}acetamide] it is more than 2000 nM.
In the case of `O=C(COc1ccc(Cl)c(F)c1)N[C@H]1CC[C@H](C(=O)N2CC(c3ccc(Cl)cc3)C2)CC1` [Compound 129, 2-(4-chloro-3-fluorophenoxy)-N-{(1r,4r)-4-[3-(4-chlorophenyl)azetidine-1-carbonyl]cyclohexyl}acetamide], the EC50 was less than 10 nM.
The figure for `O=C(COc1ccc(Cl)c(F)c1)N[C@H]1CC[C@H](C(=O)N2CC(O)(c3ccc(Cl)cc3)C2)CC1` [Compound 130, 2-(4-chloro-3-fluorophenoxy)-N-{(1r,4r)-4-[3-(4-chlorophenyl)-3-hydroxyazetidine-1-carbonyl]cyclohexyl}acetamide] is 50 to 250 nM; for `O=C(COc1ccc(Cl)c(F)c1)N[C@H]1CC[C@H](C(=O)N2CC(c3ccccc3)C2)CC1` [Compound 131, 2-(4-chloro-3-fluorophenoxy)-N-[(1r,4r)-4-(3-phenylazetidine-1-carbonyl)cyclohexyl]acetamide] it is 10 to 50 nM.
The figure for `O=C(COc1ccc(Cl)c(F)c1)N[C@H]1CC[C@H](C(=O)N2Cc3ccc(Cl)cc3C2)CC1` [Compound 132, N-[(1r,4r)-4-(5-chloro-1,3-dihydro-2H-isoindole-2-carbonyl)cyclohexyl]-2-(4-chloro-3-fluorophenoxy)acetamide] is 10 to 50 nM; for `O=C(COc1ccc(Cl)c(F)c1)N[C@H]1CC[C@@H](C(=O)N2CC(c3ccc(Cl)cc3)C2)CC1` [Compound 133, 2-(4-chloro-3-fluorophenoxy)-N-{(1s,4s)-4-[3-(4-chlorophenyl)azetidine-1-carbonyl]cyclohexyl}acetamide] it is more than 2000 nM.
Regarding `O=C(COc1ccc(Cl)c(F)c1)N[C@@H]1CC[C@@H](C(=O)N2CC(c3ccc(C(F)(F)F)cc3)C2)OC1` [Compound 134, 2-(4-chloro-3-fluorophenoxy)-N-[(3R,6S)-6-{3-[4-(trifluoromethyl)phenyl]azetidine-1-carbonyl}oxan-3-yl]acetamide], the EC50 is less than 10 nM.
The figure for `O=C(COc1ccc(Cl)c(F)c1)N[C@@H]1CC[C@@H](C(=O)NCc2nc(C(F)(F)F)c[nH]2)OC1` [Compound 135, (2S,5R)-5-[2-(4-chloro-3-fluorophenoxy)acetamido]-N-{[4-(trifluoromethyl)-1H-imidazol-2-yl]methyl}oxane-2-carboxamide] is 50 to 250 nM.
For the compound `Cc1cc(CNC(=O)[C@@H]2CC[C@@H](NC(=O)COc3ccc(Cl)c(F)c3)CO2)n(C)n1` [Compound 136, (2S,5R)-5-[2-(4-chloro-3-fluorophenoxy)acetamido]-N-[(1,3-dimethyl-1H-pyrazol-5-yl)methyl]oxane-2-carboxamide], the EC50 is more than 2000 nM.
Turning to `O=C(COc1ccc(Cl)c(F)c1)N[C@@H]1CC[C@@H](C(=O)NCCOc2ccc(Cl)cc2)OC1` [Compound 137, (2S,5R)-5-[2-(4-chloro-3-fluorophenoxy)acetamido]-N-[2-(4-chlorophenoxy)ethyl]oxane-2-carboxamide], the EC50 fell in the range of 10 to 50 nM.
The figure for `O=C(COc1ccc(Cl)c(F)c1)N[C@@H]1CC[C@@H](C(=O)NCc2cn3ccc(Cl)cc3n2)OC1` [Compound 138, (2S,5R)-5-[2-(4-chloro-3-fluorophenoxy)acetamido]-N-[(7-chloroimidazo[1,2-a]pyridin-2-yl)methyl]oxane-2-carboxamide] is 10 to 50 nM.
For `O=C(COc1ccc(Cl)c(F)c1)N[C@@H]1CC[C@@H](C(=O)NCc2cnc(C(F)(F)F)nc2)OC1` [Compound 139, (2S,5R)-5-[2-(4-chloro-3-fluorophenoxy)acetamido]-N-{[2-(trifluoromethyl)pyrimidin-5-yl]methyl}oxane-2-carboxamide], the EC50 is 250 to 500 nM.
`COc1ncc(CNC(=O)[C@@H]2CC[C@@H](NC(=O)COc3ccc(Cl)c(F)c3)CO2)cn1` [Compound 140, (2S,5R)-5-[2-(4-chloro-3-fluorophenoxy)acetamido]-N-[(2-methoxypyrimidin-5-yl)methyl]oxane-2-carboxamide]: the EC50 was more than 2000 nM.
With `O=C(COc1ccc(Cl)c(F)c1)N[C@@H]1CC[C@@H](C(=O)NC2(c3ccc(Cl)cc3)CC2)OC1` [Compound 141, (2S,5R)-5-[2-(4-chloro-3-fluorophenoxy)acetamido]-N-[1-(4-chlorophenyl)cyclopropyl]oxane-2-carboxamide], the EC50 is more than 2000 nM.
Next, `O=C(COc1ccc(Cl)c(F)c1)N[C@@H]1CC[C@@H](C(=O)NCc2cc3cc(Cl)ccc3[nH]2)OC1` [Compound 142, (2S,5R)-5-[2-(4-chloro-3-fluorophenoxy)acetamido]-N-[(5-chloro-1H-indol-2-yl)methyl]oxane-2-carboxamide]: 50 to 250 nM.
Next, `O=C(COc1ccc(Cl)c(F)c1)N[C@@H]1CC[C@@H](C(=O)N2CCC(c3ccc(Cl)cc3)C2)OC1` (stereo partly drawn) [Compound 143, 2-(4-chloro-3-fluorophenoxy)-N-{(3R,6S)-6-[3-(4-chlorophenyl)pyrrolidine-1-carbonyl]oxan-3-yl}acetamide]: 500 to 2000 nM.
Next, `O=C(COc1ccc(Cl)c(F)c1)N[C@@H]1CC[C@@H](C(=O)N2CCn3c(nnc3C(F)(F)F)C2)OC1` [Compound 144, 2-(4-chloro-3-fluorophenoxy)-N-{(3R,6S)-6-[3-(trifluoromethyl)-5,6-dihydro[1,2,4]triazolo[4,3-a]pyrazine-7(8H)-carbonyl]oxan-3-yl}acetamide]: more than 2000 nM; `O=C(COc1ccc(Cl)c(F)c1)N[C@@H]1CC[C@@H](C(=O)Nc2nccc(-c3ccc(Cl)c(F)c3)n2)OC1` [Compound 145, (2S,5R)-5-[2-(4-chloro-3-fluorophenoxy)acetamido]-N-[4-(4-chloro-3-fluorophenyl)pyrimidin-2-yl]oxane-2-carboxamide]: 500 to 2000 nM; `O=C(COc1ccc(Cl)c(F)c1)N[C@@H]1CC[C@@H](C(=O)NCCc2ccc(Cl)cc2)OC1` [Compound 146, (2S,5R)-5-[2-(4-chloro-3-fluorophenoxy)acetamido]-N-[2-(4-chlorophenyl)ethyl]oxane-2-carboxamide]: 50 to 250 nM.
